Test results from PMC5908784, “Extracellular loops 2 and 3 of the calcitonin receptor selectively modify agonist binding and efficacy” (Biochemical Pharmacology, 2018).
Where a chain is given by its changes, count along the chain named. Where a SMILES comes first, the peptide text is derived from it. Bridges are numbered along the chain shown (N, C = ends). Where no end group is shown, it is not given here.

What was measured:
hCTR Y299A = target: T1, hCTR Y299A (Homo sapiens, UniProt P30988, Y299A); experiment: Homologous whole cell competition binding; settings: homologous competition of 125I-sCT(8-32), whole cells, mean ± S.E.M., SEM
T1 construct: c-Myc (N); expressed in transfected cells
T1 sequence (P30988 25-474 Y299A): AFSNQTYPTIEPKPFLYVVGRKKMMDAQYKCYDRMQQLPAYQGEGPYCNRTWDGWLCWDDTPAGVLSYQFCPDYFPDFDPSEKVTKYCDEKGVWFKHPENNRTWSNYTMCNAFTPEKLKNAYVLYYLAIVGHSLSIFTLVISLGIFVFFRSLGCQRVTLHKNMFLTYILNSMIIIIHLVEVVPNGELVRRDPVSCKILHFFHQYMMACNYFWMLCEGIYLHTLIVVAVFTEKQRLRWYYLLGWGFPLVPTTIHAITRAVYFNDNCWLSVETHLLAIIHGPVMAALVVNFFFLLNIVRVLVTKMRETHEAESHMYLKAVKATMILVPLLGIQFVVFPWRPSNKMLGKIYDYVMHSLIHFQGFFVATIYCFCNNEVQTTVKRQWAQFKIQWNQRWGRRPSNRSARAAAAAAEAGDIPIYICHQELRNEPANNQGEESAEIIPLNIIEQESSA
Outline: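 Whole cells expressing the mutant receptor were incubated overnight at 4 °C with ^125I-sCT(8-32) (25–100 pM, two concentrations) and serial dilutions of unlabelled sCT(8-32). Bound radioactivity was gamma-counted; nonspecific binding was defined with 1 μM sCT(8-32). IC50 was fitted by 3-parameter logistic and Cheng-Prusoff-corrected to pKi.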

hCTR S292A = target: T2, hCTR S292A (Homo sapiens, UniProt P30988, S292A); experiment: Heterologous whole cell competition binding; settings: heterologous competition of 125I-sCT(8-32), whole cells, mean ± S.E.M., SEM
T2 construct: expressed in transfected cells
T2 sequence (P30988 25-474 S292A): T1 sequence (P30988 25-474 Y299A) with S268A, A275Y
Experimental: (§1) Following overnight incubation non-bound ligand was removed and radioactivity was determined using a gamma counter.
(§2) Data were corrected for radioligand occupancy using the Cheng-Prusoff equation in Prism; as such data are reported as pKi. Emax and EC50 were estimated from concentration-response curves using with a 3-parameter logistic equation in Prism (v7). These values are a composite of functional affinity, efficacy and stimulus response coupling. […] Significance was accepted at P < 0.05.

hCTR D373A = target: T3, hCTR D373A (Homo sapiens, UniProt P30988, D373A); experiment: Heterologous whole cell competition binding; settings: heterologous competition of 125I-sCT(8-32), whole cells, mean ± S.E.M., SEM
T3 construct: c-Myc (N); expressed in transfected cells
T3 sequence (P30988 25-474 D373A): T1 sequence (P30988 25-474 Y299A) with A275Y, D349A
Experimental: as §1, §2

hCTR N288A = target: T4, hCTR N288A (Homo sapiens, UniProt P30988, N288A); experiment: Heterologous whole cell competition binding; settings: heterologous competition of 125I-sCT(8-32), whole cells, mean ± S.E.M., SEM
T4 construct: expressed in transfected cells
T4 sequence (P30988 25-474 N288A): T1 sequence (P30988 25-474 Y299A) with N264A, A275Y
Experimental: as §1, §2

Compound	Ki (hCTR Y299A) [nM]	Ki (hCTR S292A) [nM]	Ki (hCTR D373A) [nM]	Ki (hCTR N288A) [nM]
VLGKLSQELHKLQTYPRTNTGSGTP-NH2 [sCT(8-32)]	0.107			
CSCC[C@H](NC(=O)CNC(=O)[C@H](CO)NC(=O)[C@H](Cc1ccccc1)NC(=O)[C@H](CCCNC(=N)N)NC(=O)[C@H](Cc1c[nH]cn1)NC(=O)[C@H](Cc1ccccc1)NC(=O)[C@H](CC(N)=O)NC(=O)[C@H](CC(N)=O)NC(=O)[C@H](CC(C)C)NC(=O)[C@H](CC(N)=O)NC(=O)[C@H](CCCNC(=N)N)NC(=O)[C@H](Cc1c[nH]c2ccccc12)NC(=O)[C@H](Cc1ccc(O)cc1)NC(=O)[C@H](C)NC(=O)[C@H](CO)NC(=O)[C@H](CC(C)C)NC(=O)[C@@H](NC(=O)[C@@H]1CSSC[C@H](N)C(=O)N[C@@H](CO)C(=O)N[C@@H](CC(N)=O)C(=O)N[C@@H](CC(C)C)C(=O)N[C@@H](CO)C(=O)N[C@@H]([C@@H](C)O)C(=O)N1)C(C)C)C(=O)NCC(=O)N[C@@H](Cc1ccccc1)C(=O)NCC(=O)N1CCC[C@H]1C(=O)N[C@@H](CCC(=O)O)C(=O)N[C@H](C(=O)N1CCC[C@H]1C(N)=O)[C@@H](C)O [pCT] (H-CSNLSTCVLSAYWRNLNNFHRFSGMGFGPETP-NH2; disulfide 1-7)		2.88	17.4	9.33
